According to US12560054B2, “Use of carboxylates for carbon sequestration, improved oil recovery, and hydrogen storage and reproduction” (Board of Regents, The University of Texas System, priority 2021, dated 2026):
Read-outs that look alike come from different tables or passages of the source.

Legend:
[1] = 337 K
Experimental: Contact Angle Experiments. Contact angle experiments were performed on calcite surfaces and Eagle Ford shale plates. […] After cutting the plates in the appropriate sizes, they were polished with a diamond grinder to result in a smooth surface.
RB was made first by adding salts and adjusting the total mass of the solution to 1 kg with deionized water. […] The final pH level was adjusted to correspond to the glycine solution at the same concentration. […]
(§1) After being aged in heavy oil for at least 3 weeks, the calcite or shale pieces were retrieved, and the excess oil was removed from the surfaces carefully. Then, to start the experiment, the rock pieces were immersed in the solution and then oil droplets were placed at the bottom of the rock pieces. The solution chambers were put in the oven for equilibration. Then, images of the oil droplets were taken. A new oil droplet was placed after a certain number of days and the images were taken after equilibration. Contact angles reported in figures are the equilibrium contact angles. For example, if data is reported from day 7, that data is the final equilibrated contact angle of the droplet placed on day 7. Contact angles were measured from photos with the on-screen protractor software.
A similar procedure was followed for another set of experiments with Eagle Ford shale plates.

[2] = with RB at reservoir and room temperatures
[3] = pH measurements before and after the contact angle experiments with calcite; type: physicochemical; conditions: room temperature; for pH After: after contact angle experiment with calcite; for pH Before: before contact angle experiment
Experimental: RB was made first by adding salts and adjusting the total mass of the solution to 1 kg with deionized water. […] For solutions with HCl, HCl was added to solutions of formate and acetate at room temperature while stirring slowly. […] After aqueous solutions were prepared and degassed, they were placed in an oven at the desired reservoir temperature (347 K for calcite and 337 for Eagle Ford shale).

[4] = 347 K
Experimental: as §1, with “Contact Angle Experiments. Contact angle experiments were performed on calcite surfaces and Eagle Ford shale plates. […] After” for “After”, “cutting the plates” for “being aged”, “the appropriate sizes, they were polished with a diamond grinder to result in a smooth surface. […] The pH values of the chemical solutions were measured before and after the experiment. […] The final pH level was adjusted to correspond to the glycine solution” for “heavy oil for”, “at” for “at least 3 weeks,”, “same concentration. […]” for “calcite or shale pieces were retrieved, and the excess oil was removed from the surfaces carefully.”

[5] = room temperature; cited from earlier work
[6] = near-saturated 45% (% w/w) sodium formate in water, 20 °C; cited from earlier work
[7] = Viscosity and density of formate solutions in NaCl+CaCl2 brine; type: physicochemical; conditions: solutions in the brine at 25, 50 and 75 °C over a wide range of shear rates
Experimental: Viscosity Measurements. […] A double wall couette geometry was used for the measurement. The viscosity measurements were taken at 25, 50, and 75° C. The sodium formate solutions were prepared and allowed to equilibrate in an oven set at the target temperature.
For viscosity measurements at 50 and 75° C., the temperature of the holding cup was raised to the target temperature using the circulating bath before putting the solution into the rheometer's sample holding cup.

SMILES	final contact angle on Eagle Ford shale plates ([1]; 5 wt % in RB with HCl)	final contact angle on Eagle Ford shale plates ([1]; 5 wt % in RB without HCl)	aqueous stability [2]	pH After ([3]; 0.5 wt % in RB)	pH Before ([3]; 0.5 wt % in RB)	pH After ([3]; 1 wt % in RB)	pH Before ([3]; 1 wt % in RB)	pH After ([3]; 2.5 wt % in RB)	pH Before ([3]; 2.5 wt % in RB)	pH After ([3]; 5 wt % in RB)	pH Before ([3]; 5 wt % in RB)	contact angle on calcite ([4]; with HCl (pH adjusted to glycine level), in RB)	contact angle on calcite ([4]; without HCl, 0.5-5 wt % in RB)	contact angle reduction on calcite ([4]; without HCl, in RB)	contact angle on calcite ([4]; 2.5 and 5 wt % in RB, reached over time) [°]	isoelectric point (pI) [5]	reported viscosity [6] [cp]	rheological behavior [7]
O=CO [formate]	approximately 60 °	about 80 °	confirmed	8.26	8.07	8.22	7.96	8.05	8.12	7.96	8.11	50-60 °	approximately 80 °	–	–	–	–	–
CC(=O)[O-].[Na+] [acetate, Sodium Acetate]	approximately 60 °	about 80 °	confirmed	8.04	8.15	7.89	8.31	7.87	8.44	7.85	8.64	–	–	did not significantly reduce the contact angle	–	–	–	–
NCC(=O)O [glycine, reference compound]	–	60 °	–	7.94	6.68	7.73	6.42	7.53	6.24	7.62	6.10	–	–	–	~40	5.97	–	–
O=C[O-].[Na+] [sodium formate]	–	–	–	–	–	–	–	–	–	–	–	–	–	–	–	–	9.5	Newtonian behavior
